From patent publication US12121521B2, “Uses of salt-inducible kinase (SIK) inhibitors for treating osteoporosis” (The General Hospital Corporation, priority 2016, dated 2024)

Key:
[1] = tested on: Ocy454 cells; assay: Gene expression in Ocy454 cells by RT-qPCR; type: cell-based, mouse
[2] = target: T1, CDK7 (Homo sapiens, UniProt P50613); assay: ScanEDGE kinase panel (DiscoverX); type: binding; settings: read-out: % of control activity at 71 nM
T1 construct: T7 phage fusion (most kinases) or DNA tag for qPCR (HEK-293-made kinases); purchased DiscoverX (Fremont, CA); host or cells: E. coli BL21-derived host (T7 phage) or HEK-293
Description: (§1) ScanEDGE kinase assays paneling specificity across a panel of 96 representative kinases were performed by DiscoverX (Fremont, CA). For most assays, kinase-tagged T7 phage strains were grown in parallel in 24-well blocks in an E. coli host derived from the BL21 strain. Bacteria were grown to log phase and infected with T7 phage from frozen stock (MOI=0.4) and incubated with shaking at 32° C. until lysis (90-150 minutes). The lysates were centrifuged (6000×g) and filtered (0.2 μm) to remove cell debris. The remaining kinases were produced in HEK-293 cells and subsequently tagged with DNA for qPCR detection. […] The liganded beads were blocked with excess biotin and washing with blocking buffer (SeaBlock (Pierce), 1% BSA, 0.05% Tween 20, 1 mM DTT) to remove unbound ligand and to reduce non-specific phage binding. […] Test compounds were prepared as 40× stocks in 100% DMSO and directly diluted into the assay. All reactions were performed in polypropylene 384 well plates in a final volume of 40 μl. […] The kinase concentration in the eluates was measured by qPCR.

[3] = target: T2, CDK3 (Homo sapiens, UniProt Q00526); assay: ScanEDGE kinase panel (DiscoverX); type: binding; settings: read-out: % of control activity at 71 nM
T2 construct: T7 phage fusion (most kinases) or DNA tag for qPCR (HEK-293-made kinases); purchased DiscoverX (Fremont, CA); host or cells: E. coli BL21-derived host (T7 phage) or HEK-293
Description: as §1

[4] = target: T3, CSNK1D (Homo sapiens, UniProt P48730); assay: ScanEDGE kinase panel (DiscoverX); type: binding; settings: read-out: % of control activity at 71 nM
T3 construct: T7 phage fusion (most kinases) or DNA tag for qPCR (HEK-293-made kinases); purchased DiscoverX (Fremont, CA); host or cells: E. coli BL21-derived host (T7 phage) or HEK-293
Description: as §1

[5] = target: T4, TIE2 (Homo sapiens, UniProt Q02763); assay: ScanEDGE kinase panel (DiscoverX); type: binding; settings: read-out: % of control activity at 71 nM
T4 construct: T7 phage fusion (most kinases) or DNA tag after HEK-293 expression; purchased DiscoverX (Fremont, CA), ScanEDGE; host or cells: T7 phage in E. coli BL21-derived host, or HEK-293
Description: as §1

[6] = target: T5, DYRK1B (Homo sapiens, UniProt Q9Y463); assay: ScanEDGE kinase panel (DiscoverX); type: binding; settings: read-out: % of control activity at 71 nM
T5 construct: T7 phage fusion (most kinases) or DNA tag for qPCR (HEK-293-made kinases); purchased DiscoverX (Fremont, CA); host or cells: E. coli BL21-derived host (T7 phage) or HEK-293
Description: as §1

[7] = target: T6, MELK (Homo sapiens, UniProt Q14680); assay: ScanEDGE kinase panel (DiscoverX); type: binding; settings: read-out: % of control activity at 71 nM
T6 construct: T7 phage fusion (most kinases) or DNA tag for qPCR (kinases made in HEK-293); purchased DiscoverX; host or cells: E. coli BL21-derived host (T7 phage) or HEK-293
Description: as §1

[8] = target: T7, RAF1 (Homo sapiens, UniProt P04049); assay: ScanEDGE kinase panel (DiscoverX); type: binding; settings: read-out: % of control activity at 71 nM
T7 construct: T7 phage fusion (most kinases) or DNA tag after HEK-293 expression; purchased DiscoverX (Fremont, CA), ScanEDGE; host or cells: T7 phage in E. coli BL21-derived host, or HEK-293
Description: as §1

[9] = target: T8, BRAF (Homo sapiens, UniProt P15056); assay: ScanEDGE kinase panel (DiscoverX); type: binding; settings: read-out: % of control activity at 71 nM
T8 construct: T7 phage fusion (most kinases) or DNA tag for qPCR (HEK-293-made kinases); purchased DiscoverX (Fremont, CA); host or cells: E. coli BL21-derived host (T7 phage) or HEK-293
Description: as §1

[10] = target: T9, KIT (Homo sapiens, UniProt P10721); assay: ScanEDGE kinase panel (DiscoverX); type: binding; settings: read-out: % of control activity at 71 nM
T9 construct: T7 phage fusion (most kinases) or DNA tag for qPCR (HEK-293-made kinases); purchased DiscoverX; host or cells: E. coli BL21-derived host (T7 phage) or HEK-293
Description: as §1

[11] = target: T10, PIM3 (Homo sapiens, UniProt Q86V86); assay: ScanEDGE kinase panel (DiscoverX); type: binding; settings: read-out: % of control activity at 71 nM
T10 construct: T7 phage fusion (most kinases) or DNA tag for qPCR (kinases made in HEK-293); purchased DiscoverX; host or cells: E. coli BL21-derived host (T7 phage) or HEK-293
Description: as §1

[12] = target: T11, PAK1 (Homo sapiens, UniProt Q13153); assay: ScanEDGE kinase panel (DiscoverX); type: binding; settings: read-out: % of control activity at 71 nM
T11 construct: T7 phage fusion (most kinases) or DNA tag for qPCR (kinases made in HEK-293); purchased DiscoverX; host or cells: E. coli BL21-derived host (T7 phage) or HEK-293
Description: as §1

[13] = target: T12, JAK2 (Homo sapiens, UniProt O60674); assay: ScanEDGE kinase panel (DiscoverX); type: binding; settings: read-out: % of control activity at 71 nM
T12 construct: T7 phage fusion (most kinases) or DNA tag for qPCR (HEK-293-made kinases); purchased DiscoverX; host or cells: E. coli BL21-derived host (T7 phage) or HEK-293
Description: as §1

[14] = target: T13, ACVR1B (Homo sapiens, UniProt P36896); assay: ScanEDGE kinase panel (DiscoverX); type: binding; settings: read-out: % of control activity at 71 nM
T13 construct: T7 phage fusion (most kinases) or DNA tag for qPCR (HEK-293-made kinases); purchased DiscoverX (Fremont, CA); host or cells: E. coli BL21-derived host (T7 phage) or HEK-293
Description: as §1

[15] = target: T14, PDGFRB (Homo sapiens, UniProt P09619); assay: ScanEDGE kinase panel (DiscoverX); type: binding; settings: read-out: % of control activity at 71 nM
T14 construct: T7 phage fusion (most kinases) or DNA tag for qPCR (kinases made in HEK-293); purchased DiscoverX; host or cells: E. coli BL21-derived host (T7 phage) or HEK-293
Description: as §1

[16] = target: T15, FLT3 (Homo sapiens, UniProt P36888); assay: ScanEDGE kinase panel (DiscoverX); type: binding; settings: read-out: % of control activity at 71 nM
T15 construct: T7 phage fusion (most kinases) or DNA tag for qPCR (HEK-293-made kinases); purchased DiscoverX; host or cells: E. coli BL21-derived host (T7 phage) or HEK-293
Description: as §1

[17] = target: T16, ERBB2 (Homo sapiens, UniProt P04626); assay: ScanEDGE kinase panel (DiscoverX); type: binding; settings: read-out: % of control activity at 71 nM
T16 construct: T7 phage fusion (most kinases) or DNA tag for qPCR (HEK-293-made kinases); purchased DiscoverX; host or cells: E. coli BL21-derived host (T7 phage) or HEK-293
Description: as §1

[18] = target: T17, LKB1 (Homo sapiens, UniProt Q15831); assay: ScanEDGE kinase panel (DiscoverX); type: binding; settings: read-out: % of control activity at 71 nM
T17 construct: T7 phage fusion (most kinases) or DNA tag for qPCR (HEK-293-made kinases); purchased DiscoverX; host or cells: E. coli BL21-derived host (T7 phage) or HEK-293
Description: as §1

[19] = target: T18, TSSK1B (Homo sapiens, UniProt Q9BXA7); assay: ScanEDGE kinase panel (DiscoverX); type: binding; settings: read-out: % of control activity at 71 nM
T18 construct: T7 phage fusion (most kinases) or DNA tag after HEK-293 expression; purchased DiscoverX (Fremont, CA), ScanEDGE; host or cells: T7 phage in E. coli BL21-derived host, or HEK-293
Description: as §1

[20] = target: T19, PIM2 (Homo sapiens, UniProt Q9P1W9); assay: ScanEDGE kinase panel (DiscoverX); type: binding; settings: read-out: % of control activity at 71 nM
T19 construct: T7 phage fusion (most kinases) or DNA tag for qPCR (kinases made in HEK-293); purchased DiscoverX; host or cells: E. coli BL21-derived host (T7 phage) or HEK-293
Description: as §1

[21] = target: T20, RIOK2 (Homo sapiens, UniProt Q9BVS4); assay: ScanEDGE kinase panel (DiscoverX); type: binding; settings: read-out: % of control activity at 71 nM
T20 construct: T7 phage fusion (most kinases) or DNA tag after HEK-293 expression; purchased DiscoverX (Fremont, CA), ScanEDGE; host or cells: T7 phage in E. coli BL21-derived host, or HEK-293
Description: as §1

[22] = target: T21, BTK (Homo sapiens, UniProt Q06187); assay: ScanEDGE kinase panel (DiscoverX); type: binding; settings: read-out: % of control activity at 71 nM
T21 construct: T7 phage fusion (most kinases) or DNA tag for qPCR (HEK-293-made kinases); purchased DiscoverX (Fremont, CA); host or cells: E. coli BL21-derived host (T7 phage) or HEK-293
Description: as §1

[23] = target: T22, ERK1 (Homo sapiens, UniProt P27361); assay: ScanEDGE kinase panel (DiscoverX); type: binding; settings: read-out: % of control activity at 71 nM
T22 construct: T7 phage fusion (most kinases) or DNA tag for qPCR (HEK-293-made kinases); purchased DiscoverX; host or cells: E. coli BL21-derived host (T7 phage) or HEK-293
Description: as §1

[24] = target: T23, INSR (Homo sapiens, UniProt P06213); assay: ScanEDGE kinase panel (DiscoverX); type: binding; settings: read-out: % of control activity at 71 nM
T23 construct: T7 phage fusion (most kinases) or DNA tag for qPCR (HEK-293-made kinases); purchased DiscoverX; host or cells: E. coli BL21-derived host (T7 phage) or HEK-293
Description: as §1

[25] = target: T24, HCK (Homo sapiens, UniProt P08631); assay: ScanEDGE kinase panel (DiscoverX); type: binding; settings: read-out: % of control activity at 71 nM
T24 construct: T7 phage fusion (most kinases) or DNA tag for qPCR (HEK-293-made kinases); purchased DiscoverX; host or cells: E. coli BL21-derived host (T7 phage) or HEK-293
Description: as §1

[26] = target: T25, GSK3B (Homo sapiens, UniProt P49841); assay: ScanEDGE kinase panel (DiscoverX); type: binding; settings: read-out: % of control activity at 71 nM
T25 construct: T7 phage fusion (most kinases) or DNA tag for qPCR (HEK-293-made kinases); purchased DiscoverX; host or cells: E. coli BL21-derived host (T7 phage) or HEK-293
Description: as §1

[27] = target: T26, CHEK1 (Homo sapiens, UniProt O14757); assay: ScanEDGE kinase panel (DiscoverX); type: binding; settings: read-out: % of control activity at 71 nM
T26 construct: T7 phage fusion (most kinases) or DNA tag for qPCR (HEK-293-made kinases); purchased DiscoverX (Fremont, CA); host or cells: E. coli BL21-derived host (T7 phage) or HEK-293
Description: as §1

[28] = tested on: Ocy454 cells; assay: Immunoblotting of Ocy454 cell lysates (HDAC4/5, CRTC2, SIK2 phosphorylation and localisation); type: cell-based, mouse
[29] = control vs SIK2/3 deficient cells, 0.5 μM, 4 hours

T22 sequence (P27361 whole entry, the tested form may be a part): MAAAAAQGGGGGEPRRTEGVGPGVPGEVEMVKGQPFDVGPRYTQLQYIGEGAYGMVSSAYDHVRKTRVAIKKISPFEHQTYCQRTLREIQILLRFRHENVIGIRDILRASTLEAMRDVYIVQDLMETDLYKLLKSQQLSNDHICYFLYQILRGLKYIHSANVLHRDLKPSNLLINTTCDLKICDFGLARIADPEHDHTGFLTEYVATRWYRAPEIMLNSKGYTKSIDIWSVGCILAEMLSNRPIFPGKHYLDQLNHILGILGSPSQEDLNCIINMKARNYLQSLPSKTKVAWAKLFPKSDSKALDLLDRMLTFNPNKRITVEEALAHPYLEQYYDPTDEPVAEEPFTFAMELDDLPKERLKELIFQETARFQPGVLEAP
T26 sequence (O14757 whole entry, the tested form may be a part): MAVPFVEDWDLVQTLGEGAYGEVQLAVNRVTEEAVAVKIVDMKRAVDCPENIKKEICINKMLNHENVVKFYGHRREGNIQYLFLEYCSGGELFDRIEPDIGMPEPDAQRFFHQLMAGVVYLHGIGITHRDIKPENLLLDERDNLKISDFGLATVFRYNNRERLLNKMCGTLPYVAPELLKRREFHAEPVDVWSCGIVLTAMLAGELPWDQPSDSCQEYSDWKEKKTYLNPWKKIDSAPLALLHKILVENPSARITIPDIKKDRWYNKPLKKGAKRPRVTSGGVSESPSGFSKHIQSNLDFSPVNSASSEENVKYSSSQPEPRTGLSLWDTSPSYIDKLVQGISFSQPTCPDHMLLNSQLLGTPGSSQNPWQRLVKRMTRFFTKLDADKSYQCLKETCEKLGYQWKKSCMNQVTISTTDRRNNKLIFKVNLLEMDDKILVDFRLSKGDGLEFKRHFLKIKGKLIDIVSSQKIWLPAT
T13 sequence (P36896 24-505): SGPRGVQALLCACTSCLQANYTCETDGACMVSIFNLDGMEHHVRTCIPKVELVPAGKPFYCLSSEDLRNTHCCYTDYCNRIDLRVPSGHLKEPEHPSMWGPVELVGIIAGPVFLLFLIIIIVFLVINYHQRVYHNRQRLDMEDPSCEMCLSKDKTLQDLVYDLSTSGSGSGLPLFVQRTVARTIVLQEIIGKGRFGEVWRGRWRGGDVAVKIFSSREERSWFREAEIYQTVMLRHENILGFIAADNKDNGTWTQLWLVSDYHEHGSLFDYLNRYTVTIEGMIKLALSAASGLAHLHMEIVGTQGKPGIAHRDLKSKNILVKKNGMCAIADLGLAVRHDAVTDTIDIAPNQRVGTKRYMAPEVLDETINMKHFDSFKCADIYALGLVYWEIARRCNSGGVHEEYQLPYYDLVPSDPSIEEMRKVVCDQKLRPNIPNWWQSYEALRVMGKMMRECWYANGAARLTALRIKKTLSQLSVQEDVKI
T23 sequence (P06213 28-1382): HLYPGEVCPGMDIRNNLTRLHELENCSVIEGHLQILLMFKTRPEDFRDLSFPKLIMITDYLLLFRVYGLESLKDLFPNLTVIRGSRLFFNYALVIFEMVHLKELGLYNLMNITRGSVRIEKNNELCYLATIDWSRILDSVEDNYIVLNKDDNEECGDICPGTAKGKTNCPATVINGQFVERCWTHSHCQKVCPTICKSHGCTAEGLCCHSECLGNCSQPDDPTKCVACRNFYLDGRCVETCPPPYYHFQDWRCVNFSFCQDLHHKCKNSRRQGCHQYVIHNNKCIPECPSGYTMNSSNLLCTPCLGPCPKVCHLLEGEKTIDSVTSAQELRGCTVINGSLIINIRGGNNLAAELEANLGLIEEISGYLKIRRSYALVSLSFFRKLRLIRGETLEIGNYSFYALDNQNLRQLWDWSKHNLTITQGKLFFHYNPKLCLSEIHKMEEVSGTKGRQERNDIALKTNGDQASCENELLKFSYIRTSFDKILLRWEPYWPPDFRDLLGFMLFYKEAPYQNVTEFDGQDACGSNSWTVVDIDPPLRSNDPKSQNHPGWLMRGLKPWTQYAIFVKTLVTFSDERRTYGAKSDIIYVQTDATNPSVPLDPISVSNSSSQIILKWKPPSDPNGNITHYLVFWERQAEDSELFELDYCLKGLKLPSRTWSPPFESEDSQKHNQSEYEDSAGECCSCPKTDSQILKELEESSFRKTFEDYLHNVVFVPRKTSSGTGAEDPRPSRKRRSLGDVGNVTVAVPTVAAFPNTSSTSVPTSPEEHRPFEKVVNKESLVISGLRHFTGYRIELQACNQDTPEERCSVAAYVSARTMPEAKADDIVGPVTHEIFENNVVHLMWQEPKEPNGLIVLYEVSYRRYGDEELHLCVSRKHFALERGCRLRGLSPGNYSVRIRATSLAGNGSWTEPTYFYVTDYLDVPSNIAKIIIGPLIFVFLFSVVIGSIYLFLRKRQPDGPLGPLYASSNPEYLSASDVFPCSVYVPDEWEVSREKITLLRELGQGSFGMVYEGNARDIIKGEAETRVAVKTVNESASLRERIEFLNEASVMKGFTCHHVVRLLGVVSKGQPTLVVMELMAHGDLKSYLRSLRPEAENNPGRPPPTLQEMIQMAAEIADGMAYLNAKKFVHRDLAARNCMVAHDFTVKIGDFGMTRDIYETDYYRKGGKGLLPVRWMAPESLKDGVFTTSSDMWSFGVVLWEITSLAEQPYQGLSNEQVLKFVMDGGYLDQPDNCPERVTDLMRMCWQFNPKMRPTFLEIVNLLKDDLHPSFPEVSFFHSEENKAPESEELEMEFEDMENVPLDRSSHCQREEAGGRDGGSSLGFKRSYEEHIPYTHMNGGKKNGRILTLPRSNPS
T1 sequence (P50613 whole entry, the tested form may be a part): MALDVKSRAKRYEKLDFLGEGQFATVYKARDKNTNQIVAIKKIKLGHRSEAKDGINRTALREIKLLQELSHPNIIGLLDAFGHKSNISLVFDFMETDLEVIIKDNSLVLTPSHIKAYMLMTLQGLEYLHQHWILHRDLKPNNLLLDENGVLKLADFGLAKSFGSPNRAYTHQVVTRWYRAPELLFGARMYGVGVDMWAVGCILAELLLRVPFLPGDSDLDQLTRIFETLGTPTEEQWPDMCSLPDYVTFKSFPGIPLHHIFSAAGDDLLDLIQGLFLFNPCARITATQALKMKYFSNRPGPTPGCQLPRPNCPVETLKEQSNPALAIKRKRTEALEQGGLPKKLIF
T19 sequence (Q9P1W9 whole entry, the tested form may be a part): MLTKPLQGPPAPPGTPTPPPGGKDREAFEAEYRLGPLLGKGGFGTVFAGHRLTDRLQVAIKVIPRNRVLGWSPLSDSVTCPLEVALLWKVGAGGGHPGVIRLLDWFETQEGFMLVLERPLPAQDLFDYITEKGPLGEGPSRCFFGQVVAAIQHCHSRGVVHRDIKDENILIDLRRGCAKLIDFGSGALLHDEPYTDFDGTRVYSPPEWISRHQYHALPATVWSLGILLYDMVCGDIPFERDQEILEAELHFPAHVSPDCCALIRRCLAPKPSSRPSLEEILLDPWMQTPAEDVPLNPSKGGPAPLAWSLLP
T4 sequence (Q02763 23-1124): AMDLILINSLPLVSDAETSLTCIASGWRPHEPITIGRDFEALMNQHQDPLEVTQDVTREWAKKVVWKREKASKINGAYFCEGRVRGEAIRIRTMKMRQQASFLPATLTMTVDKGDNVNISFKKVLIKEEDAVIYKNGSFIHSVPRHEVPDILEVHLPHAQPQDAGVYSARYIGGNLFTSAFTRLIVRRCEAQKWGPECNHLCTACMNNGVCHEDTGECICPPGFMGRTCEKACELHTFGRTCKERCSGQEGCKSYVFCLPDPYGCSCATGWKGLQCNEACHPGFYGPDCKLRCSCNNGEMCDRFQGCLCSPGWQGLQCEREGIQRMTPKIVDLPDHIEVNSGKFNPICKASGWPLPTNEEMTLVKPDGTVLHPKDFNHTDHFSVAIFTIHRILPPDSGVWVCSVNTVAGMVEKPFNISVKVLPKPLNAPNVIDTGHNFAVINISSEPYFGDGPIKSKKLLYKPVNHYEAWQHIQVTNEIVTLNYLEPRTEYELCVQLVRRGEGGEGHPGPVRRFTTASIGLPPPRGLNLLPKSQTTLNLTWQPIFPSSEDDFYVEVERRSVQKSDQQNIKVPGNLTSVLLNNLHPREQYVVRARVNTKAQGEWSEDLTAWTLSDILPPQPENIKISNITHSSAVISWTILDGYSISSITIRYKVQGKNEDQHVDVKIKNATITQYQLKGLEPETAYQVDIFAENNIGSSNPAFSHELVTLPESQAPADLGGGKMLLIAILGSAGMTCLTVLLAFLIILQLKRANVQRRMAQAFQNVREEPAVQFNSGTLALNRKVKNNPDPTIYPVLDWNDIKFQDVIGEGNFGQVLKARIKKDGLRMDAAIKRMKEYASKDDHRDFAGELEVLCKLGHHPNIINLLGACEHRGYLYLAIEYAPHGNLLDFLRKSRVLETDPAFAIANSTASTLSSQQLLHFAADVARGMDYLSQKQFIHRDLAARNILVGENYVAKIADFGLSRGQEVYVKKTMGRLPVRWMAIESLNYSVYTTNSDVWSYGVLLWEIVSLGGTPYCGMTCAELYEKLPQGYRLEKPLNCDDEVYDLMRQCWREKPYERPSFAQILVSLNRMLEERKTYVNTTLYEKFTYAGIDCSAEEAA
T12 sequence (O60674 840-1132 limits assumed): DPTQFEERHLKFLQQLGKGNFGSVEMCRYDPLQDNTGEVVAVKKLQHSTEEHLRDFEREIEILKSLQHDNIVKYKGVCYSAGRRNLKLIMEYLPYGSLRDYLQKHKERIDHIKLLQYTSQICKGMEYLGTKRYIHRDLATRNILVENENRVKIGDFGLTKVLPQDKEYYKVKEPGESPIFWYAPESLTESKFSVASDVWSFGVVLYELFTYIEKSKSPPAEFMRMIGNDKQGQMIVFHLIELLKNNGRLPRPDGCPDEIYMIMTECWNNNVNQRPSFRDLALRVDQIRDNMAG

COc1ccc(N2C(=O)N(c3c(C)cccc3C)Cc3cnc(Nc4ccc(C5CCN(C)CC5)c(OC)c4)nc32)c(OC)c1 [YKL-05-093]
RANKL expression ([1]; FIG. 5E): RANKL up-regulation
SOST expression ([1]; FIG. 5E): rapid and potent SOST suppression
RANKL expression ([1]; Gsα-deficient Ocy454, 0.5 μM): RANKL up-regulation with effects similar to forskolin
SOST expression ([1]; Gsα-deficient Ocy454, 0.5 μM): SOST suppression
stimulation of RANKL expression ([1]; cells lacking CRTC2, PTH 1 nM or YKL-05-093 0.5 μM, 4 hours): abrogated
genes measured with SIK2/3-dependent regulation [1, 29]: 13/19
genes measured with regulation independent of the presence of SIK2/3 [1, 29]: 6/19
SOST expression ([1]; osteocytes lacking SIK2 and SIK3, 0.5 μM, 4 hours): did not decrease HDAC4 S246 phosphorylation or cause SOST suppression
remaining binding at 0.071 µM [2]: 85%
remaining binding at 0.071 µM [3]: 80%
remaining binding at 0.071 µM [4]: 98%
remaining binding at 0.071 µM [5]: 32%
remaining binding at 0.071 µM [6]: 93%
remaining binding at 0.071 µM [7]: 36%
remaining binding at 0.071 µM [8]: 100%
remaining binding at 0.071 µM [9]: 66%
remaining binding at 0.071 µM [10]: 1.8%
remaining binding at 0.071 µM [11]: 84%
remaining binding at 0.071 µM [12]: 6.6%
remaining binding at 0.071 µM [13]: 13%
remaining binding at 0.071 µM [14]: 50%
remaining binding at 0.071 µM [15]: 0.35%
remaining binding at 0.071 µM [16]: 20%
remaining binding at 0.071 µM [17]: 3.5%
remaining binding at 0.071 µM [18]: 85%
remaining binding at 0.071 µM [19]: 83%
remaining binding at 0.071 µM [20]: 97%
remaining binding at 0.071 µM [21]: 77%
remaining binding at 0.071 µM [22]: 0.45%
remaining binding at 0.071 µM [23]: 100%
remaining binding at 0.071 µM [24]: 56%
remaining binding at 0.071 µM [25]: 1.2%
remaining binding at 0.071 µM [26]: 68%
remaining binding at 0.071 µM [27]: 42%
SIK2 S358 phosphorylation ([28]; control and Gsα-deficient Ocy454 cells, 10 μM, 30 minutes): did not increase SIK2 S358 phosphorylation
HDAC4 S246 phosphorylation ([28]; osteocytes lacking SIK2 and SIK3, 10 μM for 45 minutes): did not decrease HDAC4 S246 phosphorylation
